Measurements published in patent publication US20120225062A1 (priority 2011, published 2012).

System: KMS11 (human myeloma cell line)
Assay: Cell Proliferation Assay (CellTiter-Glo, 3 days)
Assay type: cell-based
Settings: KMS-11, 72 h, KMS11-luc cells
Experimental: KMS11 (human myeloma cell line), were cultured in IMDM supplemented with 10% FBS, sodium pyruvate and antibiotics. Cells were plated in the same medium at a density of 2000 cells per well into 96 well tissue culture plates, with outside wells vacant, on the day of assay.
Test compounds supplied in DMSO were diluted into DMSO at 500 times the desired final concentrations before dilution into culture media to 2 times final concentrations. Equal volumes of 2× compounds were added to the cells in 96 well plates and incubated at 37° C. for 3 days.
After 3 days plates were equilibrated to room temperature and equal volume of CellTiter-Glow Reagent (Promega) was added to the culture wells. The plates were agitated briefly and luminescent signal was measured with luminometer.
Using the procedures of Cell Proliferation Assay, the EC50 concentrations of compounds of the examples were determined in KMS11 cells as shown in Table 4.

SMILES	EC50 [nM]
C[C@H]1C[C@@H](c2ccncc2NC(=O)c2ccc(F)c(-c3c(F)cc(C4(O)COC4)cc3F)n2)C[C@@H](N)[C@@H]1O [Example 54, N-(4-((1R,3R,4R,5S)-3-amino-4-hydroxy-5-methylcyclohexyl)pyridin-3-yl)-6-(2,6-difluoro-4-(3-hydroxyoxetan-3-yl)phenyl)-5-fluoropicolinamide]	95
Cc1cc(F)c(-c2nc(C(=O)Nc3cnccc3[C@H]3C[C@@H](N)[C@@H](O)[C@@H](C)C3)ccc2F)c(F)c1 [Example 6, N-(4-((1R,3R,4S,5S)-3-amino-4-hydroxy-5-methylcyclohexyl)pyridin-3-yl)-6-(2,6-difluoro-4-methylphenyl)-5-fluoropicolinamide]	41
C[C@@H]1C[C@H](N)C[C@H](c2ccncc2NC(=O)c2ccc(F)c(-c3c(F)cc([C@H](C)O)cc3F)n2)C1 [Example 73, N-(4-((1R,3S,5S)-3-amino-5-methylcyclohexyl)pyridin-3-yl)-6-(2,6-difluoro-4-((S)-1-hydroxyethyl)phenyl)-5-fluoropicolinamide]	21
C[C@H]1C[C@@H](c2ccncc2NC(=O)c2ccc(F)c(-c3c(F)cc(C4(F)CCOCC4)cc3F)n2)C[C@@H](N)[C@@H]1O [Example 127, N-(4-((1R,3R,4R,5S)-3-amino-4-hydroxy-5-methylcyclohexyl)pyridin-3-yl)-6-(2,6-difluoro-4-(4-fluorotetrahydro-2H-pyran-4-yl)phenyl)-5-fluoropicolinamide]	59
COc1cc(F)c(-c2nc(C(=O)Nc3cnccc3[C@@H]3C[C@H](C)C[C@H](N)C3)ccc2F)c(F)c1 [Example 11, N-(4-((1R,3S,5S)-3-amino-5-methylcyclohexyl)pyridin-3-yl)-6-(2,6-difluoro-4-methoxyphenyl)-5-fluoropicolinamide]	71
CCc1cc(F)c(-c2nc(C(=O)Nc3cnccc3[C@H]3C[C@@H](N)[C@H](O)[C@@H](C)C3)ccc2F)c(F)c1 [Example 39, N-(4-((1R,3R,4R,5S)-3-amino-4-hydroxy-5-methylcyclohexyl)pyridin-3-yl)-6-(4-ethyl-2,6-difluorophenyl)-5-fluoropicolinamide]	55
C[C@H]1C[C@@H](c2ccncc2NC(=O)c2ccc(F)c(-c3c(F)cc(C4CC4)cc3F)n2)C[C@@H](N)[C@@H]1O [Example 72, N-(4-((1R,3R,4R,5S)-3-amino-4-hydroxy-5-methylcyclohexyl)pyridin-3-yl)-6-(4-cyclopropyl-2,6-difluorophenyl)-5-fluoropicolinamide]	139
CSc1cc(F)c(-c2nc(C(=O)Nc3cnccc3[C@H]3C[C@@H](N)[C@H](O)[C@@H](C)C3)ccc2F)c(F)c1 [Example 36, N-(4-((1R,3R,4R,5S)-3-amino-4-hydroxy-5-methylcyclohexyl)pyridin-3-yl)-6-(2,6-difluoro-4-(methylthio)phenyl)-5-fluoropicolinamide]	107
COc1cc(F)c(-c2nc(C(=O)Nc3cnccc3[C@H]3C[C@@H](N)[C@H](O)[C@@H](C)C3)ccc2F)c(F)c1 [Example 5, N-(4-((1R,3R,4R,5S)-3-amino-4-hydroxy-5-methylcyclohexyl)pyridin-3-yl)-6-(2,6-difluoro-4-methoxyphenyl)-5-fluoropicolinamide]	62
C[C@H]1C[C@@H](c2ccncc2NC(=O)c2ccc(F)c(-c3c(F)cc(C(F)F)cc3F)n2)C[C@@H](N)[C@@H]1O [Example 58, N-(4-((1R,3R,4R,5S)-3-amino-4-hydroxy-5-methylcyclohexyl)pyridin-3-yl)-6-(4-(difluoromethyl)-2,6-difluorophenyl)-5-fluoropicolinamide]	42
C[C@H]1C[C@@H](c2ccncc2NC(=O)c2ccc(F)c(-c3c(F)cc(C4(F)CCOCC4)cc3F)n2)C[C@@H](N)[C@H]1O [Example 129, N-(4-((1R,3R,4S,5S)-3-amino-4-hydroxy-5-methylcyclohexyl)pyridin-3-yl)-6-(2,6-difluoro-4-(4-fluorotetrahydro-2H-pyran-4-yl)phenyl)-5-fluoropicolinamide]	78
Cc1cc(F)c(-c2nc(C(=O)Nc3cnccc3[C@@H]3C[C@H](C)C[C@H](N)C3)ccc2F)c(F)c1 [Example 8, N-(4-((1R,3S,5S)-3-amino-5-methylcyclohexyl)pyridin-3-yl)-6-(2,6-difluoro-4-methylphenyl)-5-fluoropicolinamide]	46
C[C@H]1C[C@@H](c2ccncc2NC(=O)c2ccc(F)c(-c3c(F)cc(S(C)(=O)=O)cc3F)n2)C[C@@H](N)[C@@H]1O [Example 14, N-(4-((1R,3R,4R,5S)-3-amino-4-hydroxy-5-methylcyclohexyl)pyridin-3-yl)-6-(2,6-difluoro-4-(methylsulfonyl)phenyl)-5-fluoropicolinamide]	1440
C[C@H]1C[C@@H](c2ccncc2NC(=O)c2ccc(F)c(-c3c(F)cc(C4COC4)cc3F)n2)C[C@@H](N)[C@@H]1O [Example 56, N-(4-((1R,3R,4R,5S)-3-amino-4-hydroxy-5-methylcyclohexyl)pyridin-3-yl)-6-(2,6-difluoro-4-(oxetan-3-yl)phenyl)-5-fluoropicolinamide]	31
C[C@H]1C[C@@H](c2ccncc2NC(=O)c2ccc(F)c(-c3c(F)cc(C4(O)CCOCC4)cc3F)n2)C[C@@H](N)[C@@H]1O [Example 122, N-(4-((1R,3R,4R,5S)-3-amino-4-hydroxy-5-methylcyclohexyl)pyridin-3-yl)-6-(2,6-difluoro-4-(4-hydroxytetrahydro-2H-pyran-4-yl)phenyl)-5-fluoropicolinamide]	83
C[C@H]1C[C@@H](c2ccncc2NC(=O)c2ccc(F)c(-c3c(F)cc(CCO)cc3F)n2)C[C@@H](N)[C@@H]1O [Example 34, N-(4-((1R,3R,4R,5S)-3-amino-4-hydroxy-5-methylcyclohexyl)pyridin-3-yl)-6-(2,6-difluoro-4-(2-hydroxyethyl)phenyl)-5-fluoropicolinamide]	29

More lines, now with the values ahead:

EC50 [nM]	SMILES
122	N[C@H]1CCC[C@@H](c2ccncc2NC(=O)c2ccc(F)c(-c3c(F)cc(C4(O)CCCC4)cc3F)n2)C1 [Example 162, N-(4-((1R,3S)-3-aminocyclohexyl)pyridin-3-yl)-6-(2,6-difluoro-4-(1-hydroxycyclopentyl)phenyl)-5-fluoropicolinamide]
> 10000	C[C@H]1C[C@@H](c2ccncc2NC(=O)c2ccc(F)c(-c3c(F)cc(C(C)(C)C(=O)O)cc3F)n2)C[C@@H](N)[C@@H]1O [Example 182, 2-(4-(6-(4-((1R,3R,4R,5S)-3-amino-4-hydroxy-5-methylcyclohexyl)pyridin-3-ylcarbamoyl)-3-fluoropyridin-2-yl)-3,5-difluorophenyl)-2-methylpropanoic acid]
324	N[C@H]1CCC[C@@H](c2ccncc2NC(=O)c2ccc(F)c(-c3c(F)cc(OC4CCOCC4)cc3F)n2)C1 [Example 150, N-(4-((1R,3S)-3-aminocyclohexyl)pyridin-3-yl)-6-(2,6-difluoro-4-(tetrahydro-2H-pyran-4-yloxy)phenyl)-5-fluoropicolinamide]
64	C[C@H]1C[C@@H](c2ccncc2NC(=O)c2ccc(F)c(-c3c(F)cc(C4(O)CC4)cc3F)n2)C[C@@H](N)[C@@H]1O [Example 158, N-(4-((1R,3R,4R,5S)-3-amino-4-hydroxy-5-methylcyclohexyl)pyridin-3-yl)-6-(2,6-difluoro-4-(1-hydroxycyclopropyl)phenyl)-5-fluoropicolinamide]
409	CC(C)(C#N)c1cc(F)c(-c2nc(C(=O)Nc3cnccc3[C@@H]3CCC[C@H](N)C3)ccc2F)c(F)c1 [Example 167, N-(4-((1R,3S)-3-aminocyclohexyl)pyridin-3-yl)-6-(4-(2-cyanopropan-2-yl)-2,6-difluorophenyl)-5-fluoropicolinamide]
363	C[C@@H]1C[C@H](N)C[C@H](c2ccncc2NC(=O)c2ccc(F)c(-c3c(F)cc(Cl)cc3F)n2)C1 [Example 208, N-(4-((1R,3S,5S)-3-amino-5-methylcyclohexyl)pyridin-3-yl)-6-(4-chloro-2,6-difluorophenyl)-5-fluoropicolinamide]
13	C[C@@H]1C[C@H](N)C[C@H](c2ccncc2NC(=O)c2ccc(F)c(-c3c(F)cc(C(C)(C)O)cc3F)n2)C1 [Example 236, N-(4-((1R,3S,5S)-3-amino-5-methylcyclohexyl)pyridin-3-yl)-6-(2,6-difluoro-4-(2-hydroxypropan-2-yl)phenyl)-5-fluoropicolinamide]
211	CCOCc1cc(F)c(-c2nc(C(=O)Nc3cnccc3[C@@H]3CCC[C@H](N)C3)ccc2F)c(F)c1 [Example 152, N-(4-((1R,3S)-3-aminocyclohexyl)pyridin-3-yl)-6-(4-(ethoxymethyl)-2,6-difluorophenyl)-5-fluoropicolinamide]
340	COCCOc1cc(F)c(-c2nc(C(=O)Nc3cnccc3[C@@H]3CCC[C@H](N)C3)ccc2F)c(F)c1 [Example 151, N-(4-((1R,3S)-3-aminocyclohexyl)pyridin-3-yl)-6-(2,6-difluoro-4-(2-methoxyethoxy)phenyl)-5-fluoropicolinamide]
62	CCc1cc(F)c(-c2nc(C(=O)Nc3cnccc3[C@@H]3C[C@H](C)C[C@H](N)C3)ccc2F)c(F)c1 [Example 230, N-(4-((1R,3S,5S)-3-amino-5-methylcyclohexyl)pyridin-3-yl)-6-(4-ethyl-2,6-difluorophenyl)-5-fluoropicolinamide]
97	N[C@H]1CCC[C@@H](c2ccncc2NC(=O)c2ccc(F)c(-c3c(F)cc(C4(O)CCC4)cc3F)n2)C1 [Example 159, N-(4-((1R,3S)-3-aminocyclohexyl)pyridin-3-yl)-6-(2,6-difluoro-4-(1-hydroxycyclobutyl)phenyl)-5-fluoropicolinamide]
